{"source": "patent US20180116993A1", "about": "“MODULATORS OF FARNESOID X RECEPTOR AND METHODS FOR THE USE THEREOF” (XIAMEN UNIVERSITY, priority 2015, published 2018)", "key": {"[1]": {"test_system": "mice with APAP-induced liver injury", "experiment": "Acetaminophen (APAP)-induced liver injury in mouse", "type": "in vivo", "excerpt": "Methods: Acetaminophen (APAP)-induced liver injury in mouse is a commonly used model to study drugs protecting liver. Overdose of APAP causes liver injury by inducing the production of reactive oxygen species and reactive nitrogen species, and excessive consumption of reductive substances such as antioxidant glutathione (GSH), leading to the reduction of GSH in vivo, and the following upregulation of the activities of the aspartate aminotransferase (AST), the alanine aminotransferase (ALT) and the lactate dehydrogenase (LDH), which will result in liver inflammation and necrosis. In this example, the APAP-induced liver injury was used to detect the protection and repair functions of our compounds in liver injury.\nOne-year or 8-week age mice were maintained under environmentally controlled conditions with free access to standard chow diet and water. Animal experiments were conducted in the barrier facility of the Laboratory Animal Center, Xiamen University, approved by the Institutional Animal Use and Care Committee of Xiamen University, China.\nCompounds were solved with DMSO and then prepared to work concentration with 40% HBC (2-hydroxypropyl-β-cyclodextrin) in which the final work concentrations of compounds are 5 mg/kg body weight, 10 mg/kg or 20 mg/kg in 100 μl injection volume and the concentration of DMSO is 10%. Compounds were intraperitoneal (i.p.) injected once daily for five days. For Feroline and Tschimganine, one-year age mice were used in the experiment. For other compounds, 8-week age mice were used. […] For Tschimganine, 20 mg/kg dose of compound was administered to mice. For other compounds, 5 mg/kg dose of compounds were administered to mice. Six hours after the fifth injection, 500 mg/kg body weight of APAP solved in PBS was i.p. injected to the mice. 24 hours later, mice were sacrificed. Part of each liver was fixed in 4% paraformaldehyde, and the liver histology characterization was analyzed by haematoxylin and eosin (H&E) staining with paraffin-embedded sections by standard procedures. Other liver tissues were collected for detecting the GSH levels, and the mRNA expression of genes involved in liver repairing, such as GPX1 and UGT1a1, by RT-PCR. The serums were collected to measure enzymes activities including AST, ALT and LDH. For the synthetic derivatives, ALT and GSH were selected as indicating markers for the function of these compounds."}, "[2]": {"test_system": "KK-Ay mice", "experiment": "Serum metabolic parameters in high-fat diet fed diabetic KK-Ay mice", "type": "in vivo, mouse", "details": "10 mg/kg for 14 days, vehicle 253 ± 11", "excerpt": "(§1) KK-Ay mice (KK/Upj-Ay/J) are animal models with moderate obese and diabetes with insulin resistance. KK-Ay mice develop hyperglycemia, hyperinsulinemia, glucose intolerance and obesity as well as fat accumulation in liver by eight weeks of age. Pancreatic islets are hypertrophied and the β-cells are degranulated. db/db mice (BKS.Cg-Dockr+/+ Lepr^db/Jnju) are animal models of type II diabetes. They have the phenotype of insulin resistance. These model mice were used to detect the functions of our compounds on metabolic diseases.\n(§2) 8-10 weeks age mice were maintained as example 4, and fed with high-fat diet (Research Diets, D12492). Mice were i.p. injected with compounds once daily for 7, 10, 11 or 14 days as indicated in each table. After the last compounds injection, mice were fasted for 6 hours with free access to water, and then sacrificed. Part of each liver was fixed in 4% paraformaldehyde for H&E staining, and other liver tissues were stored in liquid nitrogen for enzyme activity measurement and gene expression analysis by RT-PCR. The serums were collected to measure metabolic parameters, including serum glucose, insulin, cholesterol, free fatty acid (FFA) and triglyceride levels. Serum glucose was analyzed using glucose oxidase method (Applygen, Beijing, China). The blood glucose in Table 11 was measured with Berenger blood glucose test strips (B/BRAUN, German) from blood by cutting mice tail after the 6th injection and following fast for 16 hours. Serum cholesterol and FFA were analyzed using Cholesterol Assay Kit and FFA Assay Kit (Bioassay Systems, USA; Nanjing Jiancheng Bioengineering Institute, China; FFA ELISA, R&D, USA), respectively. Serum triglyceride was analyzed using Triglyceride Assay Kit (Bioassay Systems, USA; WAKO Chemicals Inc., Japan; Applygen, Beijing, China). Liver triglyceride was analyzed using Tissue triglyceride assay kit (Applygen, Beijing, China). Serum insulin levels were measured by the Ultra Sensitive Mouse Insulin ELISA Kit (Crystal Chem. Inc., USA). RNA was isolated using Tissue RNA kit (Omega Bio-Tek, GA). The first strand cDNA were obtained by TAKARA reverse transcription kit. Real-time quantitative PCR were performed on a CFX96™ Real-Time PCR Detection System (Bio-Rad) using SYBR Premix Ex Taq™ (TAKARA). Relative mRNA expression levels were normalized to actin levels."}, "[3]": {"test_system": "db/db mice", "experiment": "Serum/blood metabolic parameters in high-fat diet fed db/db mice", "type": "in vivo, mouse", "details": "50 mg/kg for 7 days", "excerpt": "as §1\nas §2, with “actin levels. […]” for “actin levels.”"}, "[4]": {"test_system": "mouse embryonic fibroblasts (MEFs)", "experiment": "GSH levels in mouse embryonic fibroblasts (MEFs)", "type": "cell-based", "details": "20 μM, 24 hours, vehicle 31 ± 6", "excerpt": "The reduced glutathione (GSH) is a natural antioxidant in cells and plays important function responding the oxidative stress. The GSH levels will decrease with age, infection, poisoning, exogenous toxins and oxidative stress. The Sestrin2 (Sesn2) gene encodes a conserved antioxidant protein that is induced on oxidative stress and protects cells against reactive oxygen species. SOD2 is an antioxidant enzyme. The antioxidants are defense system for organ to prevent damage by free radical. In this example, the mouse embryonic fibroblasts (MEFs) were treated with compounds for 24 hours, and the GSH levels were analyzed using GSH kit (Nanjing Jiancheng Engineering Institute, China). […] Correspondingly, the expression levels of the antioxidant genes such as SOD2 and SESN2 increased in compounds treated MEFs (Table 26 and Table 28)."}, "[5]": {"experiment": "Clearance of superoxide anion radical in vitro", "details": "method of CN 102813683 B, p<0.01"}}, "note": "Marks after values point to notes of the source that are not given here.", "data": [{"substance": "Hedragonic acid", "values": [{"measurement": "Liver morphology by H&E staining (FIG. 1)", "setting": "[1]; 10 mg/kg (Tschimganine 20 mg/kg) i.p. five days, then APAP, compared to severe liver injury in control group", "value": "almost normal liver morphology"}, {"measurement": "expression levels of GPX1 and UGT1α1 in liver", "setting": "[1]; mRNA by RT-PCR, vs vehicle control group, Table 5 (not given)", "value": "significantly upregulated"}, {"measurement": "activities of serum AST, ALT and LDH", "setting": "[1]; vs vehicle control group, Table 5 (not given)", "value": "dramatically lower"}, {"measurement": "Serum Glucose (mg/dl)", "setting": "[2]", "value": "161 ± 21^b mg/dl"}, {"measurement": "Serum Insulin (ng/ml)", "setting": "[3]; vehicle 12 ± 3", "value": "4.65 ± 0.2^b ng/ml"}, {"measurement": "Serum Glucose (mg/dl)", "setting": "[3]; vehicle 521 ± 54", "value": "334 ± 50^a mg/dl"}, {"measurement": "GSH (μM)", "setting": "[4]", "value": "72 ± 9^a μM"}, {"measurement": "clearance rate to superoxide anion radical", "setting": "[5]", "value": "58%±6.4%"}]}]}
